Results on 3 substances are retold here after US8538706B2, “Method for affinity scoring of peptide/protein complexes” (Lonza Biologics PLC, priority 2004, dated 2013).

One test concerns the target HLA-A*0101 (A1) (Homo sapiens, UniProt P04439, A114D/A174V/A182V/D101N/D185E/E176A/E190D/L180R/Q94H/R68K/S129P/T187R/V100A/V91M/W191G). To be noted: cited from earlier work.
Another test concerns the target HLA-A*2402 (Homo sapiens, UniProt P04439, D101N/D140Y/D185E/E176V/E190D/F33S/G103R/G107R/I119L/I121M/I306V/K335N/L105A/L180Q/L300P/N151K/N90K/Q86E/Q94H/R106L/R138H/R89G/T104I/T345S/V100E/W191G/Y123F). Nature of the test: independent binding assay of fluorescent reference peptide (Kdref), A24. To be noted: single-site curve fitting, approximate.

Method for HLA-A*2402: 50% inhibitory concentrations (IC50-values) were calculated as averages obtained from at least 3 independent measurements, i.e. from different cell preparations and peptide dilutions. Test peptides >95% pure (Thermo Electron GmbH) were stored at 10 mM in DMSO at −20° C. Cysteine-containing peptides were stored at 10 mM in 1 mM DTT DMSO. […] IC50-values were converted to binding free energies (AG) using the relationships Kd=IC50Kdref/cref (7) and AG=RT ln(Kd) (8) where Kdref and cref are the dissociation constant and formal concentration of the reference peptide, respectively. The Kdref values were derived from an independent binding assay in which the fluorescence intensity was measured as a function of increasing concentrations of reference peptide.

As for IYQYMDDLY, the “binding to A1 in words” value with HLA-A*0101 (A1) (Tyr at P2) is listed as “medium-affinity binder”.
By Kd is commonly meant the free concentration of one partner at which half of the binding sites on the other are occupied at equilibrium, for simple one-to-one binding. At HLA-A*2402, RYLKC(5Fluorescein)QQLL registered a Kd of roughly 30 nM.
Take YSDSVYGDT: the equilibrium dissociation constant (Kd) at HLA-A*0101 (A1) (strongest A1-binding peptide from HPV-18) was 188 nM.
